Consider one compound from patent US20240299421A1, “CANNABIDIOL COMPOSITIONS AND USES THEREOF” (PHARMOTECH SA, priority 2020, published 2024).

One series deals with IBH horse skin lesions. The series is described as follows: Topical CBD oil formulation on skin lesions of horses diagnosed with IBH (pruritus score, IBH lesion score). In kind it is in vivo, Equus caballus (horse) and Equus ferus caballus (poney). Conditions: 1% (w/w) CBD in sesame oil, topical once daily, 4 weeks. How it is done:
(§1) The application was made by hand (using a cotton) and a glove was used for massaging the product into the affected skin area. Each horse received at minimum 1 bottle of 100 ml on Day 1 and 1 Bottle on Day 14, administration was indicated to be daily. Larger volumes have been used for larger lesions.
(§2) Safety parameters were measured by hematology measures and serum amyloid A (SSA) measures and IBH lesion score was calculated as detailed in Fettelschoss-Gabriel et al., 2018, J Allergy Clin Immunol 142(4): 1194-1205 at the beginning and at the end of the study as a disease specific observation. […] Pruritus was scored from 1-5 for each skin area affected and was calculated taking into account 3 main factors: tail scratching; mane scratching and belly scratching on ground/floor. SUM Score Pruritus-Day 1: 6 Pruritus score was calculated for Day 1, Day 14, Day 28
Then, the mean was calculated. Main pruritus signs are: tail scratching, mane scratching, face scratching and sometimes rolling on the ground for belly scratching.

Series [1] is described as follows: LC-MS/MS CBD dosing in blood/plasma after topical application. The class given is in vivo, Equus caballus (horse) and Equus ferus caballus (poney).
Series [2] in a line: Safety parameters by hematology measures. In kind it is in vivo, Equus caballus (horse) and Equus ferus caballus (poney). To be noted: 1% (w/w) CBD topical, 4 weeks. The protocol:
as §1, §2

A further series addresses CB2 receptors (Homo sapiens, UniProt P34972). To be noted: compared with THC; cited from earlier work.

Each structure is given as a SMILES string. Entries after “also recorded” stand apart in the source; their conditions may differ.

CB2 receptors, sequence (P34972 whole entry): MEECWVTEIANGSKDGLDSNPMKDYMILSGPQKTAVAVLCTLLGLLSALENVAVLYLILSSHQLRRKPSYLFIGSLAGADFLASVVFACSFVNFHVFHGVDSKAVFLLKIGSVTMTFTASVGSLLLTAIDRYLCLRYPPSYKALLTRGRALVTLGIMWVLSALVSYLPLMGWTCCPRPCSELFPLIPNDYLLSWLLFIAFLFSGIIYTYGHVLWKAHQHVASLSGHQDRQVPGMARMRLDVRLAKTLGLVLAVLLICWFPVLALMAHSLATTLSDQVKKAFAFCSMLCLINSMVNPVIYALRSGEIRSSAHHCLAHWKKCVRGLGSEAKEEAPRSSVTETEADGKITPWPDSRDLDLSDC

On to `C=C(C)[C@@H]1CCC(C)=C[C@H]1c1c(O)cc(CCCCC)cc1O` [CBD, 2-[(1R,6R)-6-isopropenyl-3-methylcyclohex-2-en-1-yl]-5-pentylbenzene-1,3-diol], for which the “IBH symptoms during treatment (IBH lesion score)” value with IBH horse skin lesions (11 animals with mild to moderate IBH) is given as “clear decrease”. In addition, the “pruritus symptoms during treatment (pruritus score)” value in the series with IBH horse skin lesions (score Day 1, Day 14, Day 28) is “reduce pruritus score; also recorded: clear decrease”. Further, the “CBD concentration in plasma” value in series [1] (1% topical concentration, LC-MS/MS) is “not found in detectable concentrations”. For the same compound, the systemic absorption result in series [1] (at 1% topical concentration) is reported as “negligible”. For the same compound, in series [2], the WBC count result is reported as “No particular trend” and the eosinophile count result is listed as “No particular trend”. In addition, the “affinity for CB2 receptors” value at CB2 receptors was “very low affinity”.
